Measured values taken from patent US11680948B2 (ABREOS BIOSCIENCES, INC., priority 2016, dated 2023).
Like-named read-outs stand apart in the source and are kept apart here. Blank lines part the entries; values can stand above or below the substance they belong to.

How the values were obtained:
[1] = tested on: Jeko-1 cells, expressing CD49d; experiment: Flow cytometry: binding of heat-inactivated natalizumab to Jeko-1 cells; assay type: cell-based; details: 60° C. for various periods of time; bivalent and arm-exchanged (bispecific) natalizumab
[2] = tested on: Fc gamma receptors; details: like other IgG4 antibodies; cited from earlier work
[3] = molecular target: T1, integrin (Homo sapiens, UniProt P13612); details: at the end of 4 weeks, cited from earlier work
T1 construct: host or cells: cells of treated patients

[4] = tested on: complement; details: in vitro; cited from earlier work
[5] = tested on: natalizumab; details: human serum spiked with natalizumab, rituximab, atezolizumab, pembrolizumab, eculizumab
Experimental: Synthesized peptides were validated for specificity by using them as ELISA capture reagents on neutravidin-coated plates. Briefly, biotinylated peptides were coated on the wells at 100 ug/mL concentration in either tris buffered saline buffer (TBS) or water. […] Antibody that was captured by the peptides was subsequently detected using a goat anti-human IgG-Fc conjugated to horseradish peroxidase (HRP) combined with a colorimetric substrate. […] The percent of recovery was calculated as follow: calibrated concentration/nominal concentration×100.

[6] = tested on: natalizumab; experiment: Binding of purified phage clones to natalizumab-coated wells; details: individually amplified and purified phage clones
Experimental: Mimetope peptides were selected from phage display libraries, some of which contain cysteines flanking the peptide mimetope sequence to increase stability of the peptide through disulfide bond formation. After three rounds of selection with multiple phage display libraries, individual phage plaques were isolated and sequenced.
All of these unique phage clones were individually amplified and purified, and their ability to specifically bind natalizumab-coated wells was assessed. […] Selected peptides derived from validated phage clones were chemically synthesized with an N-terminal acetyl modification (in some cases), C-terminal biotin modification via a terminal lysine (all peptides), and a disulfide bridge between cysteines 2 and 10 or cysteines 8 and 16 by a contract peptide manufacturer, as shown in Table 2.

[7] = tested on: natalizumab; experiment: Competition ELISA between natalizumab-specific VERITOPE and anti-idiotype; assay type: binding; details: capture reagent versus competitive reagent
Source text: In FIG. 11A natalizumab-specific VERITOPE™ is the capture reagent and anti-idiotype is the competitive reagent. In FIG. 11B, anti-idiotype is the capture reagent and natalizumab-specific VERITOPE™ is the competitive reagent.
FIGS. 10A and B illustrates a comparison of VERITOPE™ (FIG. 10A) and anti-idiotype (FIG. 10B) ELISA binding.

[8] = tested on: natalizumab; experiment: Anti-idiotype ELISA versus VERITOPE ELISA on heat-inactivated natalizumab; assay type: binding; details: natalizumab heat-inactivated at 60° C.
[9] = tested on: natalizumab; details: 1,000 or 10,000 fold molar excess of peptide; Jeko-1 cells
Source text: (§1) Jeko-1 cells, expressing CD49d, were used as a model.
as §1

Substance: natalizumab
effect of heat-inactivation on binding to cellular target [1]: alters natalizumab binding to its cellular target
binding to Fc gamma receptors [2]: reduced binding to Fc gamma receptors
integrin saturation by natalizumab ([3]; Hyams et al. 2007, crohn disease in adolescents): less than 40%
integrin saturation by natalizumab ([3]; Miller et al. 2003, relapsing multiple sclerosis): 80%
ability to fix complement [4]: lack of ability to fix complement

Substance: ACPKNPSKFCGGG{Lys(Biotin)} with Cys2-Cys10 bridge [NTZ-07-Bio]
selectivity for natalizumab over other therapeutic monoclonal antibodies [5]: selectively captures natalizumab in presence of other circulating human IgG

Substance: IYAAYPPCPQNLSKFCRHSSSPGGGG [SEQ ID NO: 16]
specific binding to natalizumab-coated wells [6]: specific binding to natalizumab

Substance: QTLNHSWLHTFIGGG [SEQ ID NO: 13]
specific binding to natalizumab-coated wells [6]: specific binding to natalizumab

Substance: Ac-ACPMNESKFCGGG{Lys(Biotin)} with Cys2-Cys10 bridge [NTZ-01-Bio]
region of natalizumab bound [7]: bind to the same region of natalizumab, most likely the antigen binding site
ability of capture reagent to distinguish active and inactive drug [8]: selectively distinguishes & quantifies active drug
inhibition of natalizumab binding to its cell surface target [9]: can inhibit binding of natalizumab to its cell surface target

The next lines start with the values.

specific binding to natalizumab-coated wells [6]: specific binding to natalizumab
Substance: ACPMNESKFCGGG [SEQ ID NO: 1]

specific binding to natalizumab-coated wells [6]: specific binding to natalizumab
Substance: ACPSNPSKFCGGG [SEQ ID NO: 2]

specific binding to natalizumab-coated wells [6]: specific binding to natalizumab
Substance: ACPKNPNKFCGGG [SEQ ID NO: 4]
